{"source": "the NIST ThermoML archive (doi:10.1016/j.fluid.2009.07.009)", "assay": "relative permittivity at zero frequency (dimensionless)", "conditions": "303.15 K; 101.33 kPa; Liquid; Parallel plate capacitor", "note": "Numbers after ± are expanded uncertainties."}
{"smiles": "CN(C)CCO", "note": "[2-(N,N-dimethylamino)ethanol]", "values": [{"measurement": "relative permittivity at zero frequency", "value": "17.18 ± 0.1"}]}
{"smiles": "CN(C)C=O", "note": "[dimethylformamide]", "values": [{"measurement": "relative permittivity at zero frequency", "value": "36.55 ± 0.22"}]}
{"smiles": "NC=O", "note": "[formamide]", "values": [{"measurement": "relative permittivity at zero frequency", "value": "106.14 ± 0.01"}]}
